Source: US11058713B2, “Treatment and diagnosis of ocular surface disorders” (Advaite LLC., priority 2017, dated 2021)
“Also recorded” adds a separate entry of the source.

Columns and labels:
stimulated neutrophils = assay: Stimulated neutrophils: inflammatory products (green staining strands), photographs; assay type: cell-based
[1] = test system: neutrophil inflammatory products; assay: Kinetic assay of neutrophil inflammatory products, stimulation by 1 nM PMA; assay type: cell-based; details: FIGS. 9A and 9B
[2] = test system: human corneal epithelial cells; assay: Scratch wound healing of confluent corneal epithelial cells; assay type: cell-based; details: anticoagulant dose heparin 1000 and 10,000 IU/ml; versus RPMI control and 100 IU/ml
Method: In this experiment human corneal epithelial cells were grown to confluence and scratch wounds were made.

[3] = test system: human corneal epithelial cells; assay: Cytotoxicity assay (LDH); assay type: cell-based
murine corneas = assay: Murine model of neutrophil product (NETs) induced corneal disease; assay type: in vivo
Method: Neutrophil products (NETs) when applied to corneal surface induced epithelial disease and fluorescein staining. […] Protein levels of inflammatory cytokines were also determined (IL-lb and IP-10) using a Magpix platform.
Whether reducing OSM levels in naive NETs using heparin or OSM NAb abrogates NETs induced epitheliopathy in murine corneas was investigated. Naive NETs, heparinized NETs and OSM NAb incubated NETs was applied to naïve murine corneas for five consecutive days. […] At Day 5, corneas were excised and abundance of inflammatory cytokines (IL-1β, IL-6 and IP-10) were determined in lysates. […] FIG. 16.

mouse corneas = assay: Recombinant OSM protein induced corneal epithelial disease; assay type: in vivo; details: for corneal fluorescein staining at Day 5: application of OSM, OSM incubated with heparin or OSM incubated with OSM NAb
Text: Excessive amounts of OSM can cause corneal epithelial disease similar to that seen in DED patients. […] OSM inhibitors used can be selected from neutralizing antibodies, neutralizing peptides and small molecules and other gene based approaches. These OSM inhibitors can be used independently as therapeutic proteins/peptides/small molecules for DED treatment.
In addition, whether OSM recombinant protein can produce epitheliopathy similar to NETs and whether reducing OSM levels using heparin or OSM NAb abrogates that effect was also investigated. […] These experiments indicate that NETs cause corneal epitheliopathy possibly due to presence of OSM and epitheliopathy can be prevented with heparin. To test this theory, a patient with oGVHD who had corneal and conjunctival epitheliopathy was treated with heparin eye drop (100 IU/mL) three times a day for four weeks.

[4] = test system: mucocellular aggregates from a patient with severe tear deficient DED; assay: Ex vivo dissolution of mucocellular aggregates (Hematoxylin-Eosin and Sytox Green); design: species or system human; details: sub-anticoagulant heparin 100 IU/ml; substantially intact with culture media (RPMI) only
Method: The extracellular structures (green strands) were dissolved when treated with sub-anticoagulant heparin (100 IU/ml), but remained substantially intact when treated with only the culture media (RPMI).

oncostatin M (OSM) [5] = assay: Recombinant OSM protein levels after incubation with heparin or NAb; assay type: binding; details: FIG. 15
Method: (§1) The molecular component of Neutrophil Extracellular Traps (NETs) that may cause epitheliopathy was investigated. […] OSM was present in abundance in mucocellular aggregates (MCA) collected from definite oGVHD patients. OSM is a heparin binding protein, therefore incubation with heparin or Neutralizing antibody (NAb) reduced recombinant OSM protein levels (FIG. 15).

oncostatin M (OSM) [6] = biological target: T1, oncostatin M (OSM) (Mus musculus, UniProt P53347); assay: OSM levels in murine NETs; assay type: binding; details: 614.67±95.73 pg/mL without heparin
T1 construct: In murine NETs, OSM is present in great abundance; endogenous in cells; host or cells: murine neutrophil extracellular traps (NETs)
T1 sequence (P53347 23-206): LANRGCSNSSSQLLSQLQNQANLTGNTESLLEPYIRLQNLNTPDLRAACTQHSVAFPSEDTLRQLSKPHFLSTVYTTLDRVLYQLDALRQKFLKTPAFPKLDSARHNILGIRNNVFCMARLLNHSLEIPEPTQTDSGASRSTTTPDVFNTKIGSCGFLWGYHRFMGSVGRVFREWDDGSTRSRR
Method: as §1

[7] = test system: immortalized meibomian gland epithelial cells; assay: Meibomian gland cell differentiation, lipid accumulation by LipidTOX staining; assay type: cell-based, human
Text: Meibomian gland disease is a conspicuous feature of oGVHD. As compared to normal meibomian gland, patients with oGVHD have extensive atrophy or truncation of meibomian glands. […] To determine the effect of NETs on meibomian glands, immortalized meibomian gland epithelial cells were cultivated and differentiated. Lipid accumulation was detected using LipidTOX staining. […] The reduction in lipid accumulation with NETs was abrogated with addition of NGAL NAb (21.21±0.83 A.U). […] The reduction of lipid accumulation with rNGAL was abrogated with addition of NGAL NAb (17.82±0.43 A.U) and heparin (15.66±1.72 A.U).

human MG cells = assay: Meibomian gland cell proliferation; assay type: cell-based; details: KSFM medium with rNGAL; reduction with rNGAL on addition of NGAL NAb or heparin
Text: Next, the effect of NGAL on proliferation of human MG cells was investigated. […] FIG. 20. […] The reduction of MG cell proliferation with rNGAL was abrogated with addition of NGAL NAb and heparin.

[8] = Heparin addition to NETs, protein level, Magpix platform
[9] = DFM medium with rNGAL, rNGAL plus NGAL NAb or rNGAL plus heparin, DFM alone 24.92±1.21

For heparin, the “neutrophil inflammatory products (green staining strands)” value (stimulated neutrophils; heparin 0.01, 0.1, 1, 10 and 100 IU/mL, FIG. 5) was “dose dependent fashion”, the “amount of inflammatory strands of neutrophils” value (stimulated neutrophils; heparin at 100 IU/ml) was “almost completely” and the “amount of neutrophil inflammatory products produced with stimulation by 1 nM PMA” value [1] was “dose dependent reduction; also recorded: dose dependent manner”. For the same molecule, the “Epithelial cell healing (scratch wounds)” value [2] was “significantly delayed”, the LDH ([3]; anticoagulant dose heparin 1000 and 10,000 IU/ml, versus RPMI control and 100 IU/ml) was “significantly higher” and the “human corneal epithelial cell cytotoxicity” value ([3]; anticoagulant dose of heparin (1000 and 10,000 IU/ml)) was “causes human corneal epithelial cell cytotoxicity”. The “human corneal epithelial cell cytotoxicity” value ([3]; sub-anticoagulant dose of heparin (100 IU/ml)) was “does not cause cytotoxicity”, the “epithelial disease and fluorescein staining” value (murine corneas; Heparin (100 IU/ml) added to NETs applied to corneal surface) was “significantly reduced” and the “corneal abundance of IL-lb” value (murine corneas; [8]) was “significantly reduced”. The “corneal abundance of IP-10” value (murine corneas; [8]) was “significantly reduced”, the “corneal fluorescein staining at Day 5” value (murine corneas; naive NETs, heparinized NETs or OSM NAb incubated NETs applied to naïve murine corneas for five consecutive days) was 0.80±0.49 and the “corneal fluorescein staining at Day 5” value (mouse corneas) was 1.20±0.20. The “corneal fluorescein staining induced by OSM” value (mouse corneas; heparin 100 IU/ml or neutralizing antibody added to recombinant OSM, FIG. 13) was “significantly reduced”, the “extracellular structures (green strands) of mucocellular aggregates” value [4] was “dissolved” and the “recombinant OSM protein levels” value (oncostatin M (OSM) [5]) was “reduced”. The “OSM levels in heparinized NETs” value (oncostatin M (OSM) [6]) was 19.95 ± 0.00 pg/mL, the “fluorescence intensity of LipidTox Green neutral lipid stain (accumulation of lipids)” value (“fluorescence intensity” for short) ([7]; DFM medium with NETs, heparinized NETs or NETs plus NGAL NAb, DFM alone 24.92±1.21, KSFM 6.93±0.57) was 33.98±2.18 A.U and the “fluorescence intensity” value [7, 9] was 15.66±1.72 A.U. The MG cell proliferation (human MG cells) was “abrogated”.

With Enoxaparin the “neutrophil inflammatory products (green staining strands)” value (stimulated neutrophils; Enoxaparin 10, 20, 40 and 80 μg/mL, FIG. 6) was “dose dependent fashion”, the “inflammatory strands of neutrophils” value (stimulated neutrophils; Enoxaparin at 80 μg/mL) was “almost completely” and the “amount of neutrophil inflammatory products produced with stimulation by 1 nM PMA” value [1] was “dose dependent reduction; also recorded: dose dependent manner”.

B1: OSM: OSM recombinant protein applied to mouse corneas (protein, UniProt P53347 25-206, looked up)
Oncostatin-M: NRGCSNSSSQLLSQLQNQANLTGNTESLLEPYIRLQNLNTPDLRAACTQHSVAFPSEDTLRQLSKPHFLSTVYTTLDRVLYQLDALRQKFLKTPAFPKLDSARHNILGIRNNVFCMARLLNHSLEIPEPTQTDSGASRSTTTPDVFNTKIGSCGFLWGYHRFMGSVGRVFREWDDGSTRSRR
For B1, the “corneal fluorescein staining at Day 5” value (mouse corneas) was 8.75±0.48.

B2: rNGAL: recombinant NGAL (neutrophil gelatinase-associated lipocalin) (protein, UniProt P80188 21-198, looked up)
Neutrophil …: QDSTSDLIPAPPLSKVPLQQNFQDNQFQGKWYVVGLAGNAILREDKDPQKMYATIYELKEDKSYNVTSVLFRKKKCDYWIRTFVPGCQPGEFTLGNIKSYPGLTSYLVRVVSTNYNQHAMVFFKKVSQNREYFKITLYGRTKELTSELKENFIRFSKSLGLPENHIVFPVPIDQCIDG
In the case of B2, the “fluorescence intensity” value [7, 9] is reported as 10.88±0.35 A.U and the MG cell proliferation (human MG cells) is reported as “significantly decreased”.
